How the values were obtained:
rats [1] = details: Kostowski et al. 1976; cited from earlier work
rats [2] = details: Kostowski et al. 1976; cited from earlier work; remark: listed apart in the source
rats [3] = details: Kostowski et al. 1976; cited from earlier work; remark: listed apart in the source
PDE10 from pig striatum = PDE10 from pig striatum (Sus scrofa, UniProt A0A287B941); assay: Inhibition of PDE10 from pig striatum ([3H]-cAMP SPA, Methods A and B); type: biochemical; details: for IC50: PDE10 pig
Description: Striatum from male Wistar rats (180-200 g), male hybrid pigs (150 kg) and male guinea pigs (CRL (HA), 500 g) respectively were collected and frozen at −70° C. At the day of preparation 0.5 g striatum was homogenised in 10 ml 50 mM Tris/Mg-buffer at 4° C. and centrifuged for one hour at 100000 g. The supernatant is called the cytosolic fraction and was removed and stored on ice. The pellet was resuspended in the same buffer, but containing 1% Triton and incubated for 45 min at 4° C. Both fractions were independently applied onto a 5 ml Hi Trap™ QHP column at the Äkta-FPLC. After washing the columns the bound PDE protein was eluted with an increasing sodium chloride gradient (0 mM-500 mM sodium chloride) in 50 mM Tris/Mg-buffer at 4° C. for the cytosolic fraction and in the presence of 1% Triton for the membrane fraction. […] The fractions with PDE10-activity were pooled and frozen in aliquots until use at −20° C. PDE10 activity was determined in a one step procedure in microtiter plates. […] Nonspecific activity was tested without the enzyme. The reaction was initiated by addition of the substrate solution and was carried out at 37° C. for 30 minutes. Enzymatic activity was stopped by addition of 25 μl YSi-SPA-beads (Amersham-Pharmacia). One hour later the mixture was measured in a liquid scintillation counter for microtiter plates (Microbeta Trilux). To pipette the incubation mixture a robot Biomek (Fa. Beckman) is used. […] For determination of IC50 values the Hill-plot, 2-parameter-model, was used. […] Striatum from male hybrid pigs (150 kg) were collected and frozen at −70° C. At the day of preparation 0.5 g striatum was homogenised in 10 ml 50 mM Tris/Mg-buffer at 4° C. and centrifuged for one hour at 100000 g. The supernatant was removed and the pellet was resuspended in the same buffer, but containing 1% Triton and incubated for 45 min at 4° C. The membrane fraction was applied onto a 5 ml Hi Trap™ QHP column at the Äkta-FPLC. After washing the column the bound PDE protein was eluted with an increasing sodium chloride gradient (0 mM-500 mM sodium chloride) in 50 mM Tris/Mg-buffer at 4° C. in the presence of 1% Triton. […] The fractions with PDE10-activity were pooled and frozen in aliquots until use at −20° C. PDE10 activity was determined in a one step procedure in microtiterplates. […] Nonspecific activity was tested without the enzyme. The reaction was initiated by addition of the substrate solution and was carried out at 37° C. for 30 minutes. Enzymatic activity was stopped by addition of 25 μl YSi-SPA-beads (Amersham-Pharmacia). One hour later the mixture was measured in a liquid scintillation counter for microtiterplates (Microbeta Trilux). To pipette the incubation mixture a robot Biomek (Fa. Beckman) is used. […] For determination of IC50 values the Hill-plot, 2-parameter-model, was used.

human recombinant PDE10A = target: T1, human recombinant PDE10A (Homo sapiens, UniProt Q9Y233); assay: Inhibition of human recombinant PDE10A ([3H]-cAMP SPA, Method B); type: biochemical; details: read-out: PDE10 inhibition IC50 [nM] PDE10A human
T1 construct: made in house; host or cells: SF21 insect cells (baculovirus)
T1 sequence (Q9Y233 1-779 isoform Q9Y233-1): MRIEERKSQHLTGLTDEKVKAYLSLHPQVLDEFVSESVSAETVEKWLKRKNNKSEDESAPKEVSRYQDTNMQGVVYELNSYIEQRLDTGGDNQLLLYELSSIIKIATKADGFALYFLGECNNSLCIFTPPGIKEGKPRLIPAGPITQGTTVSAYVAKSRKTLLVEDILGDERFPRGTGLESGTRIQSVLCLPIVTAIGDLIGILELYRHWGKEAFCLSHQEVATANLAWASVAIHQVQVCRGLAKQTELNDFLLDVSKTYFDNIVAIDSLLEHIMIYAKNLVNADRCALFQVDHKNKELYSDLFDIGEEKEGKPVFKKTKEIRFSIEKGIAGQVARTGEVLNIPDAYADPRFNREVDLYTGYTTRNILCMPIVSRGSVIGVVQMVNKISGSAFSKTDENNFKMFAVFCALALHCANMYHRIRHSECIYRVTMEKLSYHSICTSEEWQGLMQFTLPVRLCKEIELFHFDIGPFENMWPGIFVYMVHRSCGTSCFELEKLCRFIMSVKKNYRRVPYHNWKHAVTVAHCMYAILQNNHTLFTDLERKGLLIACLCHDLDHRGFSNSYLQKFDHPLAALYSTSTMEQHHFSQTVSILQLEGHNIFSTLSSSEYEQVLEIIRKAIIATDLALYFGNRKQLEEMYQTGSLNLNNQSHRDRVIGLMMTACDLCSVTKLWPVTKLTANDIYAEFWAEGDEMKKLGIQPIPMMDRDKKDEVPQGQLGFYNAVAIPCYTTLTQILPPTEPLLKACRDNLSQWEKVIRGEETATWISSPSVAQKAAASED

PDE10 from rat striatum = target: T2, PDE10 from rat striatum (Rattus norvegicus, UniProt Q9QYJ6); assay: Inhibition of PDE10 from rat striatum (Method A); type: biochemical; details: read-out: Km of substrate
T2 construct: from tissue; host or cells: rat striatum (male Wistar)
T2 sequence (Q9QYJ6 1-794): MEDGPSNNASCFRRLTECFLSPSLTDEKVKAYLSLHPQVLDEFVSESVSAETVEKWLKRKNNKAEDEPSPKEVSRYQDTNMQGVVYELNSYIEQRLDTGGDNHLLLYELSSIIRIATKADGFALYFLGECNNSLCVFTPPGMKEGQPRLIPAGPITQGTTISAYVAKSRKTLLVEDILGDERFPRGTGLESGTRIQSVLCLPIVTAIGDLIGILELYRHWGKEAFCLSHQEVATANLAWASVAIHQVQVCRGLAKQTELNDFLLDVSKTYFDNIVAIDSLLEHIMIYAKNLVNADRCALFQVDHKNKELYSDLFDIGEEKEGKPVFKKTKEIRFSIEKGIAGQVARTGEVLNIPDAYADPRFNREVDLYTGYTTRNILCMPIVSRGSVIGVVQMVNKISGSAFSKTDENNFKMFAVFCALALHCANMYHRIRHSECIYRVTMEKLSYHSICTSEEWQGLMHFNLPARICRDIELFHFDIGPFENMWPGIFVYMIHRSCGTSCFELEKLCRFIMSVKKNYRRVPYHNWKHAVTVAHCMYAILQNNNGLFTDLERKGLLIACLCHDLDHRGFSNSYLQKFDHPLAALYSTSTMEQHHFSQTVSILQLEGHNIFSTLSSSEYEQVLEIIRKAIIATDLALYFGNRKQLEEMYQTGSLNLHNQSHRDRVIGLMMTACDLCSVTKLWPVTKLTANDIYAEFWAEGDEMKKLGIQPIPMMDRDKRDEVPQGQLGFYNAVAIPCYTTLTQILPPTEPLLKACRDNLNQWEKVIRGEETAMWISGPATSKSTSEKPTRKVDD
Description: Striatum from male Wistar rats (180-200 g), male hybrid pigs (150 kg) and male guinea pigs (CRL (HA), 500 g) respectively were collected and frozen at −70° C. At the day of preparation 0.5 g striatum was homogenised in 10 ml 50 mM Tris/Mg-buffer at 4° C. and centrifuged for one hour at 100000 g. The supernatant is called the cytosolic fraction and was removed and stored on ice. The pellet was resuspended in the same buffer, but containing 1% Triton and incubated for 45 min at 4° C. Both fractions were independently applied onto a 5 ml Hi Trap™ QHP column at the Äkta-FPLC. After washing the columns the bound PDE protein was eluted with an increasing sodium chloride gradient (0 mM-500 mM sodium chloride) in 50 mM Tris/Mg-buffer at 4° C. for the cytosolic fraction and in the presence of 1% Triton for the membrane fraction. […] The fractions with PDE10-activity were pooled and frozen in aliquots until use at −20° C. PDE10 activity was determined in a one step procedure in microtiter plates. […] Nonspecific activity was tested without the enzyme. The reaction was initiated by addition of the substrate solution and was carried out at 37° C. for 30 minutes. Enzymatic activity was stopped by addition of 25 μl YSi-SPA-beads (Amersham-Pharmacia). One hour later the mixture was measured in a liquid scintillation counter for microtiter plates (Microbeta Trilux). […]

[4] = target: Phosphodiesterase (PDE) 10A (Homo sapiens, UniProt Q9Y233); details: Soderling et al. 1999; read-out: Km of substrate; cited from earlier work
Sequence of Phosphodiesterase (PDE) 10A (Q9Y233 whole entry): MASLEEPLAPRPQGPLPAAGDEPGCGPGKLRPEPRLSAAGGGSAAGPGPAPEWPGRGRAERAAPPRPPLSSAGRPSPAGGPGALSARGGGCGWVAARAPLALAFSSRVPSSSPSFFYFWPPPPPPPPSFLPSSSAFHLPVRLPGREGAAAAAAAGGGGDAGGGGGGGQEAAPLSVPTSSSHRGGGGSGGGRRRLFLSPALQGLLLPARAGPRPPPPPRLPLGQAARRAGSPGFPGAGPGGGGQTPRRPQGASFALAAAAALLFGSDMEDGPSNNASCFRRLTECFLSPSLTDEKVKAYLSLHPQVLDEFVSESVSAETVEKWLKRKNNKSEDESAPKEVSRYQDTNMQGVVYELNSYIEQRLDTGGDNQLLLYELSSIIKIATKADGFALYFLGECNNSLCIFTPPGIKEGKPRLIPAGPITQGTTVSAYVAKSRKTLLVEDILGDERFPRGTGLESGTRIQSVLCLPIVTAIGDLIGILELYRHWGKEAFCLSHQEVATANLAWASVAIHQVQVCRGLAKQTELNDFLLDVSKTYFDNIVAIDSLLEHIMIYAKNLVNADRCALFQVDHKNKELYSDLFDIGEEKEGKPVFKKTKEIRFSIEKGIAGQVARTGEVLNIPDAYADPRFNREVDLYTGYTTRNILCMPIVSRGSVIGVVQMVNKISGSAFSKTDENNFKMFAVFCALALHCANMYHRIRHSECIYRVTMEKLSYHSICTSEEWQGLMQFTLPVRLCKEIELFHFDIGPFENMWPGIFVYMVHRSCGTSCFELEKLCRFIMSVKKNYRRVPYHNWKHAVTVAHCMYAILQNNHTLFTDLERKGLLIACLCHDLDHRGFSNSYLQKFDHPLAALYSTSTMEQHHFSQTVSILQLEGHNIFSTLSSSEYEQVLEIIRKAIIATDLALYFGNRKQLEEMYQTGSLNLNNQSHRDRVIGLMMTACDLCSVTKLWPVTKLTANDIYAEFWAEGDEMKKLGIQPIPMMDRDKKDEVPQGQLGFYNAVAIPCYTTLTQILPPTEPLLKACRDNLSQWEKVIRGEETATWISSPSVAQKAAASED

| Compound | melting point | IC50 (PDE10 from pig striatum) | IC50 (human recombinant PDE10A) | also measured |
| --- | --- | --- | --- | --- |
| COc1ccc(Cc2nccc3cc(OC)c(OC)cc23)cc1OC [Papaverine] | – | – | – | apomorphine-induced stereotypies (rats [1]): reduces; dopamine concentration in rat brain (rats [2]): reducing; haloperidol-induced catalepsy (rats [3]): increases |
| COc1cc(OC)c2nc(C)c3c(C)nc(C4CCCCC4)n3c2c1 [Example 51, 1-Cyclohexyl-6,8-dimethoxy-3,4-dimethyl-imidazo[1,5-a]quinoxaline] | 219 to 222 °C | ≤ 10 nM | ≤ 10 nM | – |
| Nc1nc2c(ncn2[C@@H]2O[C@@H]3COP(=O)(O)O[C@H]3[C@H]2O)c(=O)[nH]1 [cGMP] | – | – | – | Km (PDE10 from rat striatum): 1800 nM; Km (PDE10 from pig striatum; Method A, PDE10 from pig striatum, read-out: Km of substrate): 2200 nM; Km [4]: 3000 nM |
| CCc1nc(C)c2c(N)nc3ccccc3n12 [Example 3, 1-Ethyl-3-methyl-imidazo(1,5-a)quinoxalin-4-ylamine] | 192 to 195 °C | ≥ 100 nM | – | – |
| CCCc1nc(C)c2c(C)nc3ccc(OCC4CC4)cc3n12 [Example 42, 8-Cyclopropylmethoxy-3,4-dimethyl-1-propyl-imidazo[1,5-a]quinoxaline] | 110 to 112 °C | 10 to 100 nM | 10 to 100 nM | – |
| CCCc1nc(C)c2c(C)nc3ccc(F)cc3n12 [Example 13, 3,4-Dimethyl-8-fluoro-1-propyl-imidazo(1,5-a)quinoxaline] | 140 to 144 °C | 10 to 100 nM | – | – |
| CCc1nc(C)c2c(Cl)nc3ccccc3n12 [Intermediate B3] | 125 to 128 °C | 10 to 100 nM | – | – |
| Cc1nc(C2CCCCC2)n2c1c(Cl)nc1ccc(F)cc12 [Intermediate B7, 4-Chloro-1-cyclohexyl-8-fluoro-3-methyl-imidazo(1,5-a)quinoxaline] | 205 to 210 °C | 10 to 100 nM | – | – |
| Cc1nc(C2CCCCC2)n2c1c(C)nc1ccc(F)cc12 [Example 14, 1-Cyclohexyl-3,4-dimethyl-8-fluoro-imidazo(1,5-a)quinoxaline] | 195 to 200 °C | 10 to 100 nM | – | – |
| Cc1nc(C2CCCCC2)n2c1c(C)nc1ccc(OCC3CC3)cc12 [Example 44, 1-Cyclohexyl-8-cyclopropylmethoxy-3,4-dimethyl-imidazo[1,5-a]quinoxaline] | 154 to 157 °C | 10 to 100 nM | ≥ 100 nM | – |
| CCCc1nc(C)c2c(C)nc3cc(OCc4ccc5ccccc5n4)ccc3n12 [Example 49, 3,4-Dimethyl-1-propyl-7-(quinolin-2-ylmethoxy)-imidazo(1,5-a)quinoxaline] | 134 to 136 °C | ≤ 10 nM | ≤ 10 nM | – |
| Cc1nc(C2CCCCC2)n2c1c(N)nc1ccc(OCC3CC3)cc12 [Example 40, 1-Cyclohexyl-8-cyclopropylmethoxy-3-methyl-imidazo[1,5-a]quinoxalin-4-ylamine] | 241 to 242 °C | 10 to 100 nM | ≥ 100 nM | – |

More lines, main results first:

| melting point | IC50 (PDE10 from pig striatum) | IC50 (human recombinant PDE10A) | Compound | also measured |
| --- | --- | --- | --- | --- |
| 183 to 189 °C | ≤ 10 nM | ≤ 10 nM | COc1cc(OC)c2nc(C)c3c(C)nc(-c4ccccc4Cl)n3c2c1 [Example 53, 1-(2-Chloro-phenyl)-6,8-dimethoxy-3,4-dimethyl-imidazo[1,5-a]quinoxaline] | – |
| 180 to 195 °C | ≤ 10 nM | ≤ 10 nM | Cc1nc(-c2ccccc2Cl)n2c1c(C)nc1c(OCC3CC3)cc(OCC3CC3)cc12 [Example 50, 1-(2-Chloro-phenyl)-6,8-bis-cyclopropylmethoxy-3,4-dimethyl-imidazo[1,5-a]quinoxaline] | – |
| 168 to 169 °C | ≤ 10 nM | ≤ 10 nM | COc1cc(OC)c2nc(C)c3c(C)nc(-c4ccccc4C)n3c2c1 [Example 52, 6,8-Dimethoxy-3,4-dimethyl-1-o-tolyl-imidazo[1,5-a]quinoxaline] | – |
| 186 to 188.5 °C | ≤ 10 nM | 10 to 100 nM | COc1ccc2c(c1)nc(C)c1c(C)nc(-c3ccccc3Cl)n12 [Example 47, 1-(2-Chloro-phenyl)-7-methoxy-3,4-dimethyl-imidazo[1,5-a]quinoxaline] | – |
| 185 to 187 °C | ≤ 10 nM | ≤ 10 nM | CCCc1nc(C)c2c(C)nc3c(OC)cc(OC)cc3n12 [Example 45, 6,8-Dimethoxy-3,4-dimethyl-1-propyl-imidazo[1,5-a]quinoxaline] | – |

Source: patent US7875618B2, “Substituted imidazo[1,5-a]quinoxalines useful as inhibitors of phosphodiesterase 10 for the treatment of neurological and other disorders” (Wyeth, priority 2007, dated 2011)
